# Source: ChEMBL document CHEMBL1201862, “PubChem BioAssay data set” (2004)
# Calls of active or inactive are those of the source.
# Assays:
# [1] = target: T1, Corticotropin-releasing factor receptor 2/Corticotropin-releasing factor-binding protein (Homo sapiens, UniProt P24387+Q13324); assay: activators of CRF receptor 2 with binding protein – uHTS hits, confirmation (AID 602473); type: functional; conditions: read-out: EC50_Mean
# T1 sequence (Q13324 whole entry): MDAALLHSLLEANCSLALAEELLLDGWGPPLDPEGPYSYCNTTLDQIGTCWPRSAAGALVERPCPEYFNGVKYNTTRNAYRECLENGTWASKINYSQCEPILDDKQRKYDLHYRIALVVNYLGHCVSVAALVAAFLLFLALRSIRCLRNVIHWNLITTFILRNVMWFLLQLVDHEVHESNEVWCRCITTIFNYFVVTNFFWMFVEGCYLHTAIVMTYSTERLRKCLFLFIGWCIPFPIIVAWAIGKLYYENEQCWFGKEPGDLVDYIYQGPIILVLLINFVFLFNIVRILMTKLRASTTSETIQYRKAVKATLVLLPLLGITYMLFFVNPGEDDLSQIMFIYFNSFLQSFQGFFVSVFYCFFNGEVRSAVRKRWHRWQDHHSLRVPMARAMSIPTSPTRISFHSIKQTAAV
# T1 sequence (P24387 whole entry): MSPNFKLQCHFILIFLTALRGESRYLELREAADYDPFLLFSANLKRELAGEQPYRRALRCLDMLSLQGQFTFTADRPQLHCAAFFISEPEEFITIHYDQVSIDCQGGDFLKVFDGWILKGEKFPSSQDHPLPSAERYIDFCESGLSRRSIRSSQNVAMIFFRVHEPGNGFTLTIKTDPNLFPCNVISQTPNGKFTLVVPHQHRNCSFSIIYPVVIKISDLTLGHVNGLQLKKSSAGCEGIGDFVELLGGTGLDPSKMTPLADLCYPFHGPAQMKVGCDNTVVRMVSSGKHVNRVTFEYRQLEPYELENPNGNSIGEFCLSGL
# [2] = CRF-BP/CRF-R2 complex antagonists, dose response, cell-based, uHTS hits, 384-well (AID 651639); type: functional, Homo sapiens; conditions: read-out: IC50_Mean
# [3] = target: T1, Corticotropin-releasing factor receptor 2/Corticotropin-releasing factor-binding protein; assay: Dose Response confirmation of uHTS hits for small molecule antagonists of the CRF-binding protein and CRF-R2 receptor complex.; type: functional; conditions: read-out: IC50_Mean
# [4] = target: T2, Heat shock factor protein 1 (Mus musculus, UniProt P38532); assay: inhibition of MG132-induced HSE-luciferase signal, confirmation, cell-based, NIH3T3, luminescence, dose retest (AID 2382); type: functional;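 note: NIH3T3 fibroblasts with HSF1-driven luciferase reporter stressed by proteasome inhibitor MG132; luminescence from HSF1-driven luciferase expression after 8 hours of MG132 stress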
# T2 sequence (P38532 whole entry): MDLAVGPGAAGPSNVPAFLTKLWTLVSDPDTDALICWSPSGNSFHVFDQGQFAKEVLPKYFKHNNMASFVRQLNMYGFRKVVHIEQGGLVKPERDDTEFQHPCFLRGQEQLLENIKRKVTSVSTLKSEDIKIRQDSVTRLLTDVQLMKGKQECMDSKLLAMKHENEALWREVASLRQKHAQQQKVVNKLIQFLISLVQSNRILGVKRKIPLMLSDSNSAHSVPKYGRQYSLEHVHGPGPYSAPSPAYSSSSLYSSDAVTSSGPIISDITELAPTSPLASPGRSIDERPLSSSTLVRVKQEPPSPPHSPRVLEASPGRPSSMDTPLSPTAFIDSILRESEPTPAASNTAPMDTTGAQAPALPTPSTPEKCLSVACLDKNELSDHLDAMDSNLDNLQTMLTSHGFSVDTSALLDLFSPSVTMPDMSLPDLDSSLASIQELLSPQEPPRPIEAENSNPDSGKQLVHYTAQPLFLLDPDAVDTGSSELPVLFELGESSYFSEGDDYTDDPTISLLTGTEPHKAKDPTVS
# [5] = target: Hepatocyte nuclear factor 4-alpha (Homo sapiens, UniProt P41235); type: functional, cell-based;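 note: biochemical luminescence-based dose-response counterscreen measuring inhibition of HNF4 dimerization, run alongside a screen for blockers of ABHD5–perilipin-5 interaction; split luciferase complementation of HNF4 fusion proteins in cell lysate measuring dimerization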
# [6] = target: T3, 1-phosphatidylinositol 4,5-bisphosphate phosphodiesterase beta-3 (Homo sapiens, UniProt Q01970); assay: Fluorescence-based biochemical high throughput dose response assay to identify inhibitors of phospholipase C isozymes (PLC-B3).
# T3 sequence (Q01970 whole entry): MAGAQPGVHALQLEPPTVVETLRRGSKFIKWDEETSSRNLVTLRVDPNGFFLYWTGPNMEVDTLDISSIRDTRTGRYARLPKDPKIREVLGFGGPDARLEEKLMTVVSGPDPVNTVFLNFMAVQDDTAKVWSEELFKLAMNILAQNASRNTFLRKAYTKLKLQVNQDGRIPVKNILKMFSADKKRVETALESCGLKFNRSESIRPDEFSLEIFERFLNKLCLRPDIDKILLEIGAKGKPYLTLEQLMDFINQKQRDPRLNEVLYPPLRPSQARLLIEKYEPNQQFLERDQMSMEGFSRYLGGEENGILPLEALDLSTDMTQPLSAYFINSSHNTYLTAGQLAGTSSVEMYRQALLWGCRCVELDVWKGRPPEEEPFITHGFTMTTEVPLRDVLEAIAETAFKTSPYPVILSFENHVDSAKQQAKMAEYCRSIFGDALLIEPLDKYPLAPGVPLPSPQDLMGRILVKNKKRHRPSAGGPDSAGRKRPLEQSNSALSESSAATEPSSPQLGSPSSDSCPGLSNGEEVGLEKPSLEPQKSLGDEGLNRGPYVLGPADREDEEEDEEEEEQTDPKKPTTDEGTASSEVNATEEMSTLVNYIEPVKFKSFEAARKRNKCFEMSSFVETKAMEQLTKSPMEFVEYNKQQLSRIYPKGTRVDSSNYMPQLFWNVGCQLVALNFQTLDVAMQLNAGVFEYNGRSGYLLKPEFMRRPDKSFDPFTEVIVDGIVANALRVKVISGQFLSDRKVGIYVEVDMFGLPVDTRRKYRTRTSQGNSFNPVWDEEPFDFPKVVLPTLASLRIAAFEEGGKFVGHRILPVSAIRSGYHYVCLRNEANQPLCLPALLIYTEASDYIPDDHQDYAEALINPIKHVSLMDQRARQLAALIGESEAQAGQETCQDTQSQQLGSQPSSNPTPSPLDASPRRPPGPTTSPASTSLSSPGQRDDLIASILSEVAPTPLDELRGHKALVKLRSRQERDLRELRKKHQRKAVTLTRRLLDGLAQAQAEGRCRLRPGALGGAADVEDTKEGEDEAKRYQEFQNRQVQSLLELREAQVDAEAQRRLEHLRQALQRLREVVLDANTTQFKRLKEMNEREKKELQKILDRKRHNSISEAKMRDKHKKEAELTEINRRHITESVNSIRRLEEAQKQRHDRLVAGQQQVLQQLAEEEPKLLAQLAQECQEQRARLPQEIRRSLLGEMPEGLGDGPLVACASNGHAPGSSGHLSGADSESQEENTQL
# [7] = target: T4, 1-phosphatidylinositol 4,5-bisphosphate phosphodiesterase gamma-1 (Homo sapiens, UniProt P19174); assay: Counterscreen for inhibitors of phospholipase C isozymes (PLC-B3): Fluorescence-based biochemical high throughput dose response assay to identify inhibitors of phospholipase C isozymes (PLC-gamma1).
# T4 sequence (P19174 whole entry): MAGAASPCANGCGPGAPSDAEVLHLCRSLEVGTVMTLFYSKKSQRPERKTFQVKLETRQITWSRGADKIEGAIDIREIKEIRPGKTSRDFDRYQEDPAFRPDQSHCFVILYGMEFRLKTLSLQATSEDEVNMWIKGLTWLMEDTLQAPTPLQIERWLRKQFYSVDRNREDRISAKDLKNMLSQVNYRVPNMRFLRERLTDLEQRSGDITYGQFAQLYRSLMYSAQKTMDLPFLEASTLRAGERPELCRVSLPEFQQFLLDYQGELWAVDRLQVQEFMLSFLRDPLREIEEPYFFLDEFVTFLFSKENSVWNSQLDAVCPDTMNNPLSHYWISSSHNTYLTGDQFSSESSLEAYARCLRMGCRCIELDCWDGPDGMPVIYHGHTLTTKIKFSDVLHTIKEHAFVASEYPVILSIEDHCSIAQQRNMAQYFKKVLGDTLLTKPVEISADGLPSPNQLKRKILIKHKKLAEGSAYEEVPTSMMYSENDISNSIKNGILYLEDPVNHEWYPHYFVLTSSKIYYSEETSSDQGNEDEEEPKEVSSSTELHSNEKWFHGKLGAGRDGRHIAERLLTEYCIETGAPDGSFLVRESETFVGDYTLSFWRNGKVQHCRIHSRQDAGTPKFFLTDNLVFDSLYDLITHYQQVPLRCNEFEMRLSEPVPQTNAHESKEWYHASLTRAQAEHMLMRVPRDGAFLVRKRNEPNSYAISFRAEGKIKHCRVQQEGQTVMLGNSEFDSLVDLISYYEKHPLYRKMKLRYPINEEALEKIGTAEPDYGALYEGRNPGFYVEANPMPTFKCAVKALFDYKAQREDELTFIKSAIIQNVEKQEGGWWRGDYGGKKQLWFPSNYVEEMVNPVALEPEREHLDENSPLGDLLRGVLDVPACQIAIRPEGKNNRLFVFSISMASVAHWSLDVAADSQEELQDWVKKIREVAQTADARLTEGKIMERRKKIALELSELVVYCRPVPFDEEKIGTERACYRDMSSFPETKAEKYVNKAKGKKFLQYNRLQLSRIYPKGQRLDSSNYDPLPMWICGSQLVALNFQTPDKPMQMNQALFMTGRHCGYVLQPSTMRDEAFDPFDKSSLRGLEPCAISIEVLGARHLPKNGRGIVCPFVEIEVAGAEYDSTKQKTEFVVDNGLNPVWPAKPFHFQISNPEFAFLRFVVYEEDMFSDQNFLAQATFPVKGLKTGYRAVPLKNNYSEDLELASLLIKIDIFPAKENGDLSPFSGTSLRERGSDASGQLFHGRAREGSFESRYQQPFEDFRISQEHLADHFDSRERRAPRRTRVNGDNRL
# [8] = ARNT/TACC3 interaction disruptors, potency, confirmation, biochemical, AlphaScreen, cherry-picked samples (AID 651703); type: functional, Homo sapiens;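 note: His-tagged ARNT PAS-B domain paired with GST-TACC3 E629A dimer coactivator fragment; potency of inhibitors that break up the complex and lower AlphaScreen signal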
# Hepatocyte nuclear factor 4-alpha, sequence (P41235 whole entry, the tested form may be a part): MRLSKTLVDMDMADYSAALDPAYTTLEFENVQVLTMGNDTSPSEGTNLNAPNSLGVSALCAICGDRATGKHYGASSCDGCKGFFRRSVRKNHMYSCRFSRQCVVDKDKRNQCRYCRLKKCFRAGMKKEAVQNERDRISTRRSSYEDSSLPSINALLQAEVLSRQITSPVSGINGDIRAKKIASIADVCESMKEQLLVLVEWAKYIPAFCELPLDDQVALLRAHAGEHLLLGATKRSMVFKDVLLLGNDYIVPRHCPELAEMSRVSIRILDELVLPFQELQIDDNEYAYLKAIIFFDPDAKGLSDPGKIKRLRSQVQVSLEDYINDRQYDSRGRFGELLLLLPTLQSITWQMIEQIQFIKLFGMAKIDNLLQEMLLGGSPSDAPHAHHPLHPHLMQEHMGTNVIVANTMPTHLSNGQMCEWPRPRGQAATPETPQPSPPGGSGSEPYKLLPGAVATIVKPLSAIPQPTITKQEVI
structure (smiles),measurement,setting,value
COc1cccc2cc(-c3nnc(-c4ccccc4)o3)c(=O)oc12,EC50,[1],> 53 µM (inactive)
same,IC50,[2],0.675 µM (active)
same,IC50,[3],< 0.368 µM (active)
same,EC50,[4],70.4 µM (active)
N#Cc1ccc(C(C(=O)NC2CCCCC2)n2c(=O)c(-c3ccco3)nc3ccccc32)cc1 (stereo not drawn),IC50,[5],2.39 µM (active)
CCOc1ccccc1Nc1nc(N)nc(CN(C)C2CCCCC2)n1,IC50,[6],> 123 µM (inactive)
same,IC50,[7],> 123 µM (inactive)
same,AC50,[8],80.6 µM (active)
